The values that follow come from publication PMC6985109, “Cellular apoptosis and necrosis as therapeutic targets for novel Eugenol Tosylate Congeners against Candida albicans” (Scientific Reports, 2020).

≈ marks a conversion by molar mass, not a printed value. Like-named read-outs stand apart in the source and are kept apart here.

One data set has as its system Candida albicans 4180. Briefly: Broth microdilution antifungal susceptibility (MIC/MFC). The class given is cell-based. The settings on record: strain 4180, FLC susceptible; for MIC: 37 °C, 24 h. On the procedure: (§1) In this study, 10 clinical Candida albicans isolates, comprising of 5 fluconazole susceptible and 5 fluconazole resistant, were used. C. albicans SC5314 was also used as a control laboratory strain. Clinical strains used in this study were stored at −80 °C supplemented with 20% glycerol in the Department of Clinical Microbiology and Infectious Diseases, University of the Witwatersrand, Johannesburg and were previously collected under the ethical clearance number M000402, obtained from the Human Research Ethics Committee, University of the Witwatersrand. For experimental purpose each strain from glycerol stock was recovered on Sabouraud Dextrose (SDA) agar plates at 37 °C for 24 h.
(§2) Minimum Inhibitory Concentration (MIC) and Minimum Fungicidal Concentrations (MFC) of all newly synthesized eugenol-tosylate congeners (ETC-1–ETC-7) against C. albicans strains were determined by broth microdilution assay in accordance with the approved guidelines described by Clinical and Laboratory Standards Institute (CLSI) guidelines M27-A[38]. The test compounds were prepared in 1% DMSO to a stock concentration of 8192 µg/ml. Two-fold dilutions of test compounds (100 µL) were prepared in 96-well flat-bottom microtiter plates, inoculated with 100 µl of inoculum (1 × 10^6 cells/mL) and incubated at 37 °C for 24 hours. In every set of experiment, positive control (fluconazole), negative vehicle control (1% DMSO) and culture control (media and cells only) were included. MIC’s were determined visibly as the lowest concentration of the test compounds that inhibited growth of test organism. To determine MFC, each well without visible growth was sub-cultured onto agar plates. Concentration in the first well with no growth on plate was taken as MFC. […] The experiment was performed in triplicate to validate the results.

The subject of another data set is Candida albicans 5112. Described as above. The class given is cell-based. Particulars: strain 5112, FLC resistant; for MIC: 37 °C, 24 h. The method, then:
as §1, §2

A further data set concerns Candida albicans 4576. Described as above. The class given is cell-based. Particulars: strain 4576, FLC susceptible; for MIC: 37 °C, 24 h. The method, then: as §1, §2
For the next data set, the system named is Candida albicans 4122. The description is as above. The class given is cell-based. Particulars: strain 4122, FLC resistant; for MIC: 37 °C, 24 h. On the procedure:
as §1, §2

The next data set deals with Candida albicans 4563. Described as above. The class given is cell-based. Particulars: strain 4563, FLC susceptible; for MIC: 37 °C, 24 h. The method, then:
as §1, §2

A further data set has as its system Candida albicans 4106. The data set is described as above. The class given is cell-based. The settings on record: strain 4106, FLC resistant; for MIC: 37 °C, 24 h. On the procedure: as §1, §2
A further data set deals with Candida albicans 4324. Described as above. The class given is cell-based. The settings on record: strain 4324, FLC resistant; for MIC: 37 °C, 24 h. The method, then:
as §1, §2

In the next data set the test system is Candida albicans SC5314. The description is as above. The class given is cell-based. The settings on record: SC5314, FLC susceptible; for MIC: 37 °C, 24 h. On the procedure: as §1, §2
A further data set relates to Candida albicans 4175. The data set is described as above. The class given is cell-based. The method, then:
as §1, §2

Another data set relates to Candida albicans 4179. The data set is described as above. The settings on record: strain 4179, FLC susceptible; for MIC: 37 °C, 24 h. The class given is cell-based. The method, then: as §1, §2
Another data set concerns Candida albicans 4135. Described as above. The class given is cell-based. The settings on record: strain 4135, FLC resistant; for MIC: 37 °C, 24 h. The method, then:
as §1, §2

Data set [1] concerns fluconazole susceptible and resistant C. albicans strains. Briefly: Broth microdilution antifungal susceptibility, ranges over strains. The class given is cell-based. Particulars: Candida albicans. The method, then:
as §1, §2

For data set [2], the system named is C. albicans 4175, C. albicans 5112 and C. albicans SC5314. As to the kind of experiment: TUNEL assay for DNA damage. The settings on record: 250 μmol/L, positive control. The class given is cell-based, Candida albicans. The method, then:
To study the effect of test compounds on apoptotic markers protoplasts were prepared as described previously, with modifications. Briefly, mid-exponential phase cells were harvested and exposed to various concentrations of test compounds (0.5 × MIC, 1 × MIC and 2×MIC) for 3 h. The cells were then washed twice with protoplast buffer- I (1 M sorbitol, 50 mM tris base, 10 mM MgCl2 and 30 mM DTT) and incubated in the same buffer for 15 minutes at 25 °C, followed by centrifugation at 1500 rpm for 5 minutes. Supernatant was removed and cells were incubated with buffer- II (1 M sorbitol, 50 mM tris base, 10 mM MgCl2 and 1 mM DTT) supplemented with lyticase enzyme (≥1 µg/mL) used to digest the cell wall for 1 h at 25 °C. Buffer- II were removed by centrifugation and then cells were incubated with buffer- III (1 M sorbitol, 50 mM tris base and 10 mM MgCl2) for 20 minutes at room temperature. After the incubation cells were again centrifuged at 1500 rpm for 5 minutes and supernatant was discarded. […]
TUNEL assay was used to detect the DNA damage, a hallmark for late stages of apoptosis. […] Slides were examined by fluorescence microscopy using Zeiss Laser Scanning Confocal Microscope (LSM) 780 (Carl Zeiss Microscopy, Jena, Germany) with an excitation wavelength of 495 nm and emission wavelength of 519 nm. […] Images were further analyzed by using software ImageJ.

The test system is the same in data set [3]. Briefly: FITC annexin V/PI staining flow cytometry, ranges over three strains. The class given is cell-based, Candida albicans. Particulars: 250 μmol/L, positive control. On the procedure:
To study the effect of test compounds on apoptotic markers protoplasts were prepared as described previously, with modifications. Briefly, mid-exponential phase cells were harvested and exposed to various concentrations of test compounds (0.5 × MIC, 1 × MIC and 2×MIC) for 3 h. The cells were then washed twice with protoplast buffer- I (1 M sorbitol, 50 mM tris base, 10 mM MgCl2 and 30 mM DTT) and incubated in the same buffer for 15 minutes at 25 °C, followed by centrifugation at 1500 rpm for 5 minutes. Supernatant was removed and cells were incubated with buffer- II (1 M sorbitol, 50 mM tris base, 10 mM MgCl2 and 1 mM DTT) supplemented with lyticase enzyme (≥1 µg/mL) used to digest the cell wall for 1 h at 25 °C. Buffer- II were removed by centrifugation and then cells were incubated with buffer- III (1 M sorbitol, 50 mM tris base and 10 mM MgCl2) for 20 minutes at room temperature. After the incubation cells were again centrifuged at 1500 rpm for 5 minutes and supernatant was discarded. Protoplasts then finally washed once with PBS and re-suspended in the same for further use. In each washing steps the volume of these protoplast buffers were 5 times to cell volume with pH 7.4.
This assay was used to identify early apoptosis by detecting movement of phosphatidylserine (PS) from the inner to the outer leaflet of plasma membrane. FITC annexin V Apoptosis Detection Kit I (BD Biosciences, CA, USA) was used according to the manufacturer’s instructions. Protoplasts of C. albicans cells treated with different concentrations of the test compounds, as mentioned in above section, were resuspended in 1X annexin V binding buffer ([…]) at a concentration of 1 × 10^6 cells per ml. To the 100 µl of this solution, 5 µl each of FITC annexin V and propidium iodide (PI) was added. Tubes were gently vortexed and incubated for 15 minutes at 25 °C in the dark. After incubation, 400 µl of 1X annexin V binding buffer was added to each tube and analyzed using the BD LSRFortessa Flow cytometer (Becton Dickinson, NJ, USA). The cell populations in four different quadrants of a quadrant dot plot were analyzed and interpreted as; Q1: necrosis (annexin V^−/PI^+), Q2: late apoptosis (annexin V^+/PI^+), Q3: early apoptosis (annexin V^+/PI^−) and Q4: viable cells (annexin V^−/PI^−), by using software FlowJo_V10.

The subject of a further data set is horse red blood cells. Briefly: Cytotoxicity by haemolytic assay. The class given is cell-based. The method, then: The cytotoxicity of the test compounds was determined on horse red blood cells (NHLS, Johannesburg, South Africa) by testing the haemolytic activity of these compounds using the method described previously, with some modifications. Briefly, in a sterile 15 ml falcon tube 5 ml of horse blood was centrifuged at 2000 × rpm for 10 minutes. The supernatant was discarded, and the cell pellet was washed three times with chilled PBS solution. The final pellet was used to yield a 10% RBC suspension with chilled PBS. The 10% suspension were further diluted to 1:10 in PBS, then 100 µl of this suspension was added to different concentration of test compounds (0.5 × MIC, 1 × MIC and 2 × MIC) in 1.5 ml tubes. The tubes were then incubated for 60 minutes at 37 °C followed by centrifugation at 2000 × rpm for 10 minutes. From each tube, 200 µl of the supernatant was transferred to a flat-bottomed 96-well microtiter plate and absorbance was monitored at 450 nm spectrophotometrically with an iMark microplate reader (Bio-Rad laboratories, CA, USA). Triton X-100 (1%) and PBS were used as positive and negative controls respectively. The percentage of haemolysis was calculated by the following equation: %haemolysis=A450oftestcompoundtreatedsample−A450ofbuffertreatedsample/A450of1%TritonX−100treatedsample−A450ofbuffertreatedsample×100%

The mark [4] stands for this setting: Candida albicans, strain 4175, FLC susceptible.
[5] abbreviates: Candida albicans, strain 4175, FLC susceptible, 37 °C, 24 h, read-out: MIC.
Where [6] appears, read: over the tested C. albicans strains.

Turning to `C=CCc1ccc(OS(=O)(=O)c2ccccc2)c(OC)c1` [ETC-2, 2-methoxy-4-(prop-2-en-1-yl)-phenylbenzenesulfonate], the MFC with Candida albicans 4180 worked out at 256 µg/mL (≈ 841 µM); against Candida albicans 5112 it was 512 µg/mL (≈ 1680 µM); against Candida albicans 4576, 256 µg/mL (≈ 841 µM); with Candida albicans 4122, 512 µg/mL (≈ 1680 µM); against Candida albicans 4563, 512 µg/mL (≈ 1680 µM); with Candida albicans 4106, 256 µg/mL (≈ 841 µM). Also, the MFC was 256 µg/mL (≈ 841 µM) in the data set on Candida albicans 4324; 64 µg/mL (≈ 210 µM) in the data set on Candida albicans SC5314; 64 µg/mL (≈ 210 µM) against Candida albicans 4175 (setting [4]); 256 µg/mL (≈ 841 µM) with Candida albicans 4179; 512 µg/mL (≈ 1680 µM) against Candida albicans 4135. Also, the MIC in the data set with Candida albicans 4180 stood at 64 µg/mL (≈ 210 µM); with Candida albicans 5112, 256 µg/mL (≈ 841 µM); with Candida albicans 4576 it was 128 µg/mL (≈ 421 µM); in the data set on Candida albicans 4122, 256 µg/mL (≈ 841 µM); in the data set on Candida albicans 4563 it was 256 µg/mL (≈ 841 µM); against Candida albicans 4106 it was 64 µg/mL (≈ 210 µM). Moreover, the MIC in the data set with Candida albicans 4324 stood at 128 µg/mL (≈ 421 µM); in the data set with Candida albicans SC5314, 32 µg/mL (≈ 105 µM); in the data set on Candida albicans 4175 (setting [5]), 32 µg/mL (≈ 105 µM); in the data set on Candida albicans 4179 it was 128 µg/mL (≈ 421 µM); against Candida albicans 4135, 128 µg/mL (≈ 421 µM).

Turning to `C=CCc1ccc(O)c(OC)c1` [EUG, 2-methoxy-4-(prop-2-en-1-yl)phenol, reference compound], the minimal fungicidal concentration (MFC) (in data set [1] (setting [6]); in the data set on Candida albicans 4180; against Candida albicans 5112; against Candida albicans 4576; in the data set on Candida albicans 4122; against Candida albicans 4563) was 1000 µg/mL (≈ 6090 µM) each time. In addition, the MFC in the data set with Candida albicans 4106, against Candida albicans 4324, in the data set with Candida albicans SC5314, against Candida albicans 4175 (setting [4]), in the data set with Candida albicans 4179 and against Candida albicans 4135 was 1000 µg/mL (≈ 6090 µM) in each case. The minimum inhibitory concentration (MIC) (in data set [1] (setting [6]); in the data set on Candida albicans 4180; in the data set on Candida albicans 5112; in the data set with Candida albicans 4576; in the data set on Candida albicans 4122; against Candida albicans 4563) was 500 µg/mL (≈ 3040 µM) in each case. Further, the minimum inhibitory concentration (MIC) against Candida albicans 4106, in the data set with Candida albicans 4324, against Candida albicans SC5314, in the data set with Candida albicans 4175 (setting [5]), against Candida albicans 4179 and against Candida albicans 4135 was 500 µg/mL (≈ 3040 µM) in each case.

Turning to `OC(Cn1cncn1)(Cn1cncn1)c1ccc(F)cc1F` [FLC, fluconazole, reference compound], the MIC in [1] (fluconazole resistant strains, range) is 8 to 64 µg/mL (≈ 26.1 to 209 µM); in [1] (fluconazole susceptible strains, range) it was 0.125 to 0.25 µg/mL (≈ 0.408 to 0.816 µM); against Candida albicans 4180 it was 0.25 µg/mL (≈ 0.816 µM); in the data set with Candida albicans 5112 it was 64 µg/mL (≈ 209 µM); in the data set with Candida albicans 4576, 0.25 µg/mL (≈ 0.816 µM); in the data set on Candida albicans 4122, 32 µg/mL (≈ 104 µM). Besides, the minimal inhibitory concentration (MIC) in the data set on Candida albicans 4563 amounted to 0.25 µg/mL (≈ 0.816 µM); with Candida albicans 4106 it was 8 µg/mL (≈ 26.1 µM); in the data set on Candida albicans 4324, 16 µg/mL (≈ 52.2 µM); against Candida albicans SC5314, 0.25 µg/mL (≈ 0.816 µM); in the data set on Candida albicans 4175 (Candida albicans, 4175, 24 h), 0.125 µg/mL (≈ 0.408 µM); with Candida albicans 4179 it was 0.25 µg/mL (≈ 0.816 µM). The lowest concentration to inhibit growth with Candida albicans 4135 (MIC) was 32 µg/mL (≈ 104 µM).

In the case of `OO` [H2O2, reference compound], in data set [2], the “TUNEL green fluorescence (late apoptotic cells)” value is recorded as “increased green fluorescence”. For the same compound, in data set [3], the early apoptosis was 32–33%, the late apoptosis is reported as 50–51% and the necrosis is given as 6–7%.

In turn, Triton X-100 [reference compound] returned a lysis in the data set on horse red blood cells of 100%.

By MFC is commonly meant the lowest tested concentration that kills the fungus rather than only halting it. A higher MFC goes with weaker fungicidal potency. What is called MIC is the least concentration at which growth counts as inhibited.
